Source: PubChem BioAssay (NCI)
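Five compound concentrations were applied to cells in 96-well plates for 48 hours; endpoints were derived by simple linear interpolation of the resulting dose-response curve. TGI denotes the concentration required for complete inhibition of growth.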 Where a SMILES comes first, the peptide text is derived from it. [ ]: non-standard residue; d: D form. The star is where a group is joined. ξ: configuration not given here. ξW = NC(Cc1c[nH]c2ccccc12)C(=O)O; X30 = O=C(O)[C@H]1CCC[C@H]1N*; ξF = NC(Cc1ccccc1)C(=O)O; Boc = CC(C)(C)OC(=O)*; ξK = NCCCCC(N)C(=O)O; ξT = CC(O)C(N)C(=O)O; tBu = CC(C)(C)*

Key:
Assay in all cases: growth of human tumour cells (NCI), 48 h
HCC-2998 colon = tested on: HCC-2998 colon
EKVX NSCLC = tested on: EKVX NSCLC
SR leukemia = tested on: SR leukemia
SF-295 CNS = tested on: SF-295 CNS
A498 renal = tested on: A498 renal
NCI-H460 lung = tested on: NCI-H460 lung
A549 NSCLC = tested on: A549 NSCLC
SF-268 CNS = tested on: SF-268 CNS
HOP-92 NSCLC = tested on: HOP-92 NSCLC
NCI-H522 lung = tested on: NCI-H522 lung
786-0 renal = tested on: 786-0 renal
OVCAR-5 ovarian = tested on: OVCAR-5 ovarian
HL-60(TB) leukemia = tested on: HL-60(TB) leukemia
CCRF-CEM leukemia = tested on: CCRF-CEM leukemia
ACHN renal = tested on: ACHN renal
MOLT-4 leukemia = tested on: MOLT-4 leukemia
OVCAR-8 ovarian = tested on: OVCAR-8 ovarian
MDA-MB-231 breast = tested on: MDA-MB-231 breast
T-47D breast = tested on: T-47D breast

COC(=O)C(C(=O)C(=O)Nc1ccc([N+](=O)[O-])cc1)c1nc2cc(C)c(C)cc2[nH]c1=O (configuration not stated)
TGI (HCC-2998 colon): > 100 µM
TGI (EKVX NSCLC): > 100 µM
TGI (SR leukemia): > 100 µM
TGI (SF-295 CNS): > 100 µM
TGI (A498 renal): > 100 µM
TGI (NCI-H460 lung): > 100 µM
TGI (A549 NSCLC): > 100 µM
TGI (SF-268 CNS): > 100 µM
TGI (HOP-92 NSCLC): > 100 µM
TGI (NCI-H522 lung): > 100 µM
TGI (786-0 renal): > 100 µM
TGI (OVCAR-5 ovarian): > 100 µM
TGI (HL-60(TB) leukemia): > 100 µM
TGI (CCRF-CEM leukemia): > 100 µM
TGI (ACHN renal): > 100 µM
TGI (MOLT-4 leukemia): > 100 µM

CC(=O)O[C@]12CCCCC1C1(O)C(O)CCCC[C@H]12 (some centres not stated)
TGI (EKVX NSCLC): > 100 µM
TGI (SR leukemia): > 100 µM
TGI (SF-295 CNS): > 100 µM
TGI (NCI-H460 lung): > 100 µM
TGI (A549 NSCLC): > 100 µM
TGI (SF-268 CNS): > 100 µM
TGI (NCI-H522 lung): > 100 µM
TGI (786-0 renal): > 100 µM
TGI (HL-60(TB) leukemia): > 100 µM
TGI (CCRF-CEM leukemia): > 100 µM
TGI (ACHN renal): > 100 µM
TGI (MOLT-4 leukemia): > 100 µM
TGI (OVCAR-8 ovarian): > 100 µM

CC(OC(C)(C)C)C(NC(=O)C(CCCCNC(=O)OC(C)(C)C)NC(=O)C(Cc1c[nH]c2ccccc12)NC(=O)C(N)Cc1ccccc1)C(=O)NC(Cc1ccccc1)C(=O)N[C@@H]1CCC[C@@H]1C(=O)O (some centres not stated) (H-[ξF][ξW][ξK](Boc)[ξT](tBu)[ξF]-X30)
TGI (HCC-2998 colon): 41.1 µM
TGI (EKVX NSCLC): > 100 µM
TGI (SR leukemia): > 100 µM
TGI (SF-295 CNS): > 100 µM
TGI (NCI-H460 lung): > 100 µM
TGI (A549 NSCLC): > 100 µM
TGI (SF-268 CNS): > 100 µM
TGI (HOP-92 NSCLC): 88.3 µM
TGI (MDA-MB-231 breast): > 100 µM
TGI (NCI-H522 lung): 41 µM
TGI (T-47D breast): > 100 µM
TGI (786-0 renal): > 100 µM
TGI (OVCAR-5 ovarian): 40.6 µM
TGI (HL-60(TB) leukemia): 82.9 µM
TGI (CCRF-CEM leukemia): 92.4 µM
TGI (ACHN renal): > 100 µM
TGI (MOLT-4 leukemia): > 100 µM
TGI (OVCAR-8 ovarian): > 100 µM

CSC1CC2C(CC1(C)SC)C2(C)C (configuration not stated)
TGI (HCC-2998 colon): > 100 µM
TGI (EKVX NSCLC): > 100 µM
TGI (SR leukemia): > 100 µM
TGI (SF-295 CNS): > 100 µM
TGI (A498 renal): > 100 µM
TGI (NCI-H460 lung): 67 µM
TGI (A549 NSCLC): > 100 µM
TGI (SF-268 CNS): > 100 µM
TGI (HOP-92 NSCLC): 53.9 µM
TGI (NCI-H522 lung): > 100 µM
TGI (786-0 renal): > 100 µM
TGI (OVCAR-5 ovarian): > 100 µM
TGI (HL-60(TB) leukemia): 58 µM
TGI (CCRF-CEM leukemia): 84.2 µM
TGI (ACHN renal): > 100 µM
TGI (MOLT-4 leukemia): > 100 µM
TGI (OVCAR-8 ovarian): > 100 µM

COC(=O)C1CCC[C@H]2C(CO)=C(C)C(=O)[C@@H]12 (some centres not stated)
TGI (HCC-2998 colon): > 100 µM
TGI (EKVX NSCLC): > 100 µM
TGI (SR leukemia): > 100 µM
TGI (SF-295 CNS): > 100 µM
TGI (A498 renal): > 100 µM
TGI (NCI-H460 lung): > 100 µM
TGI (A549 NSCLC): > 100 µM
TGI (SF-268 CNS): > 100 µM
TGI (HOP-92 NSCLC): > 100 µM
TGI (NCI-H522 lung): > 100 µM
TGI (786-0 renal): > 100 µM
TGI (OVCAR-5 ovarian): > 100 µM
TGI (HL-60(TB) leukemia): > 100 µM
TGI (CCRF-CEM leukemia): > 100 µM
TGI (ACHN renal): > 100 µM
TGI (MOLT-4 leukemia): > 100 µM
TGI (OVCAR-8 ovarian): > 100 µM

Cc1ccc(C(O)/C(=N/N)c2nc3ccc([N+](=O)[O-])cc3[nH]c2=O)cc1 (configuration not stated)
TGI (HCC-2998 colon): > 100 µM
TGI (SR leukemia): > 100 µM
TGI (SF-295 CNS): > 100 µM
TGI (NCI-H460 lung): > 100 µM
TGI (A549 NSCLC): > 100 µM
TGI (SF-268 CNS): > 100 µM
TGI (HOP-92 NSCLC): > 100 µM
TGI (NCI-H522 lung): > 100 µM
TGI (786-0 renal): > 100 µM
TGI (OVCAR-5 ovarian): > 100 µM
TGI (HL-60(TB) leukemia): > 100 µM
TGI (CCRF-CEM leukemia): > 100 µM
TGI (ACHN renal): > 100 µM
TGI (MOLT-4 leukemia): > 100 µM
TGI (OVCAR-8 ovarian): > 100 µM

O=C1c2cscc2C(=O)c2c(OCc3ccccc3)ccc(OCc3ccccc3)c21
TGI (HCC-2998 colon): > 100 µM
TGI (EKVX NSCLC): > 100 µM
TGI (SR leukemia): > 100 µM
TGI (SF-295 CNS): > 100 µM
TGI (NCI-H460 lung): > 100 µM
TGI (A549 NSCLC): > 100 µM
TGI (SF-268 CNS): > 100 µM
TGI (HOP-92 NSCLC): > 100 µM
TGI (MDA-MB-231 breast): > 100 µM
TGI (NCI-H522 lung): > 100 µM
TGI (T-47D breast): > 100 µM
TGI (786-0 renal): > 100 µM
TGI (OVCAR-5 ovarian): > 100 µM
TGI (HL-60(TB) leukemia): > 100 µM
TGI (CCRF-CEM leukemia): > 100 µM
TGI (ACHN renal): > 100 µM
TGI (MOLT-4 leukemia): > 100 µM
TGI (OVCAR-8 ovarian): > 100 µM

Nc1ccc(-c2nc3ccc(Cc4ccc5nc(-c6ccc(N)cc6)oc5c4)cc3o2)cc1
TGI (HCC-2998 colon): > 100 µM
TGI (SR leukemia): 41.2 µM
TGI (SF-295 CNS): > 100 µM
TGI (A498 renal): > 100 µM
TGI (NCI-H460 lung): > 100 µM
TGI (A549 NSCLC): > 100 µM
TGI (SF-268 CNS): > 100 µM
TGI (HOP-92 NSCLC): > 100 µM
TGI (MDA-MB-231 breast): > 100 µM
TGI (NCI-H522 lung): > 100 µM
TGI (786-0 renal): > 100 µM
TGI (OVCAR-5 ovarian): > 100 µM
TGI (CCRF-CEM leukemia): > 100 µM
TGI (ACHN renal): > 100 µM
TGI (MOLT-4 leukemia): > 100 µM
TGI (OVCAR-8 ovarian): > 100 µM

N#Cc1nc(C2SCCCS2)oc1N
TGI (EKVX NSCLC): > 100 µM
TGI (SR leukemia): > 100 µM
TGI (A498 renal): > 100 µM
TGI (A549 NSCLC): > 100 µM
TGI (SF-268 CNS): > 100 µM
TGI (HOP-92 NSCLC): > 100 µM
TGI (MDA-MB-231 breast): > 100 µM
TGI (786-0 renal): > 100 µM
TGI (OVCAR-5 ovarian): > 100 µM
TGI (HL-60(TB) leukemia): > 100 µM
TGI (CCRF-CEM leukemia): > 100 µM
TGI (ACHN renal): > 100 µM
TGI (MOLT-4 leukemia): > 100 µM
TGI (OVCAR-8 ovarian): > 100 µM

COc1cc2c(cc1OC)C1(c3ccccc3)ON=C(c3ccccc3)N1CS2 (configuration not stated)
TGI (HCC-2998 colon): > 100 µM
TGI (EKVX NSCLC): > 100 µM
TGI (SR leukemia): > 100 µM
TGI (SF-295 CNS): > 100 µM
TGI (A498 renal): > 100 µM
TGI (NCI-H460 lung): > 100 µM
TGI (A549 NSCLC): > 100 µM
TGI (SF-268 CNS): > 100 µM
TGI (HOP-92 NSCLC): > 100 µM
TGI (NCI-H522 lung): > 100 µM
TGI (786-0 renal): > 100 µM
TGI (OVCAR-5 ovarian): > 100 µM
TGI (HL-60(TB) leukemia): > 100 µM
TGI (CCRF-CEM leukemia): > 100 µM
TGI (ACHN renal): > 100 µM
TGI (MOLT-4 leukemia): > 100 µM

CCN1C(=O)C(N=[N+]=[N-])(c2ccccc2)C(=O)c2ccccc21 (configuration not stated)
TGI (HCC-2998 colon): > 100 µM
TGI (EKVX NSCLC): > 100 µM
TGI (SR leukemia): > 100 µM
TGI (SF-295 CNS): > 100 µM
TGI (NCI-H460 lung): > 100 µM
TGI (A549 NSCLC): > 100 µM
TGI (SF-268 CNS): > 100 µM
TGI (HOP-92 NSCLC): > 100 µM
TGI (NCI-H522 lung): > 100 µM
TGI (786-0 renal): > 100 µM
TGI (OVCAR-5 ovarian): > 100 µM
TGI (HL-60(TB) leukemia): > 100 µM
TGI (CCRF-CEM leukemia): > 100 µM
TGI (ACHN renal): > 100 µM
TGI (MOLT-4 leukemia): > 100 µM

Nc1ccn(CC(CO)CC(c2ccccc2)P(=O)(O)O)c(=O)n1 (configuration not stated)
TGI (HCC-2998 colon): > 100 µM
TGI (EKVX NSCLC): > 100 µM
TGI (SR leukemia): > 100 µM
TGI (SF-295 CNS): > 100 µM
TGI (A498 renal): > 100 µM
TGI (NCI-H460 lung): > 100 µM
TGI (A549 NSCLC): > 100 µM
TGI (SF-268 CNS): > 100 µM
TGI (HOP-92 NSCLC): > 100 µM
TGI (NCI-H522 lung): > 100 µM
TGI (786-0 renal): > 100 µM
TGI (OVCAR-5 ovarian): > 100 µM
TGI (HL-60(TB) leukemia): > 100 µM
TGI (CCRF-CEM leukemia): > 100 µM
TGI (ACHN renal): > 100 µM
TGI (MOLT-4 leukemia): > 100 µM
TGI (OVCAR-8 ovarian): > 100 µM
